Test results reported in ChEMBL document CHEMBL4387721, “Proteolysis targeting chimeras (PROTACs) in 'beyond rule-of-five' chemical space: Recent progress and future challenges” (Bioorg Med Chem Lett, 2019).
Values belong to the compound of their own block, whether it stands above or below them.

Tests used:
Type in all cases: cell-based
[1] = biological target: von Hippel-Lindau disease tumor suppressor/Bromodomain-containing protein 4 (Homo sapiens, UniProt O60885+P40337); test: Protac activity at VHL/BRD4 in human HeLa cells assessed as induction of BRD4 protein degradation at 50 nM up to 36 hrs by Western blot analysis relative to control
von Hippel-Lindau disease tumor suppressor/Bromodomain-containing protein 4, sequence (P40337 whole entry, looked up, other chains not shown): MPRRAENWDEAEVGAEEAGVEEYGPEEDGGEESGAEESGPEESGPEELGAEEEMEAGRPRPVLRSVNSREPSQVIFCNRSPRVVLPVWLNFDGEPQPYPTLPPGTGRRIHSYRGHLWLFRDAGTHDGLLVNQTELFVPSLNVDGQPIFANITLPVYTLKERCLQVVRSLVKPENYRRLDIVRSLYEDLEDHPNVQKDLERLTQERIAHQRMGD

[2] = biological target: T1, von Hippel-Lindau disease tumor suppressor/Steroid hormone receptor ERR1 (Homo sapiens, UniProt P11474+P40337); test: Protac activity at VHL/ERRalpha in epoxomicin pre-treated human MCF7 cells assessed as induction of ERRalpha protein degradation incubated for 8 hrs by Western blot analysis
Target sequence in this assay (P11474 whole entry): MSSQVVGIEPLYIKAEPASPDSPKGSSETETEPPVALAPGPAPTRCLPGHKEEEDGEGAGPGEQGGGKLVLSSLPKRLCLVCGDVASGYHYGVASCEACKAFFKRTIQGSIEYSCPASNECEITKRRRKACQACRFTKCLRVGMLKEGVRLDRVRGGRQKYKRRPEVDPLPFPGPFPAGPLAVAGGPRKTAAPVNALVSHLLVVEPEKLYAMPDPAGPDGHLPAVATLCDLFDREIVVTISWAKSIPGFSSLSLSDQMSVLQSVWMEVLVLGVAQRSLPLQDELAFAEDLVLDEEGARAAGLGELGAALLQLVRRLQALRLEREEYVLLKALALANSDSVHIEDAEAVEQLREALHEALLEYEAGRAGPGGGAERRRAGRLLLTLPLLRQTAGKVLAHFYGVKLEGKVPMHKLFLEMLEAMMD
Target sequence in this assay (P40337 whole entry): as the sequence (P40337 whole entry, looked up, other chains not shown) above

[3] = biological target: T1, von Hippel-Lindau disease tumor suppressor/Steroid hormone receptor ERR1; test: Protac activity at VHL/ERRalpha in epoxomicin pre-treated human MCF7 cells assessed as induction of ERRalpha protein degradation at 1 uM incubated for 8 hrs by Western blot analysis relative to control
Target sequence in this assay (P11474 whole entry, looked up): as the sequence (P11474 whole entry) above
Target sequence in this assay (P40337 whole entry, looked up): as the sequence (P40337 whole entry, looked up, other chains not shown) above

[4] = biological target: Protein cereblon/Tyrosine-protein kinase BTK (Homo sapiens, UniProt Q06187+Q96SW2); test: Protac activity at CRBN/BTK in human NAMALWA cells assessed as induction of BTK protein degradation at 100 nM incubated for 24 hrs by immunoblotting method relative to control
Protein cereblon/Tyrosine-protein kinase BTK (Homo sapiens, UniProt Q06187+Q96SW2), sequence (Q06187 2-659 limits assumed): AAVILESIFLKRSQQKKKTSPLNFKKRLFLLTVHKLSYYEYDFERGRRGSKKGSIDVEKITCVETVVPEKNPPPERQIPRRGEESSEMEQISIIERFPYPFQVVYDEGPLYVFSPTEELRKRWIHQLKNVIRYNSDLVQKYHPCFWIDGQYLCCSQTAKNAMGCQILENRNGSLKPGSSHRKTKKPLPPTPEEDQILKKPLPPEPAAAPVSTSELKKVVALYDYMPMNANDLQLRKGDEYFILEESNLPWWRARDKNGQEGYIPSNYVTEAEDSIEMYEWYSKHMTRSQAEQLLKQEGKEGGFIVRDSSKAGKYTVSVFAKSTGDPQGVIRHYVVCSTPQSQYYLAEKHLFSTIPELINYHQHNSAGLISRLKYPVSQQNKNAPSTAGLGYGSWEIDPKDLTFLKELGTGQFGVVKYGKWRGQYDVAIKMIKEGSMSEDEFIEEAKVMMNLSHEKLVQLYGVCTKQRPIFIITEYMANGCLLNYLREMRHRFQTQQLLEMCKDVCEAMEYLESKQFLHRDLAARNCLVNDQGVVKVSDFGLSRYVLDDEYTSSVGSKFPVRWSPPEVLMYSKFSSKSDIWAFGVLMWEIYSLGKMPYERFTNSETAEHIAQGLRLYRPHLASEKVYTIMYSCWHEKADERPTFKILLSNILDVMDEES
Protein cereblon/Tyrosine-protein kinase BTK (Homo sapiens, UniProt Q06187+Q96SW2), sequence (Q96SW2 whole entry partner): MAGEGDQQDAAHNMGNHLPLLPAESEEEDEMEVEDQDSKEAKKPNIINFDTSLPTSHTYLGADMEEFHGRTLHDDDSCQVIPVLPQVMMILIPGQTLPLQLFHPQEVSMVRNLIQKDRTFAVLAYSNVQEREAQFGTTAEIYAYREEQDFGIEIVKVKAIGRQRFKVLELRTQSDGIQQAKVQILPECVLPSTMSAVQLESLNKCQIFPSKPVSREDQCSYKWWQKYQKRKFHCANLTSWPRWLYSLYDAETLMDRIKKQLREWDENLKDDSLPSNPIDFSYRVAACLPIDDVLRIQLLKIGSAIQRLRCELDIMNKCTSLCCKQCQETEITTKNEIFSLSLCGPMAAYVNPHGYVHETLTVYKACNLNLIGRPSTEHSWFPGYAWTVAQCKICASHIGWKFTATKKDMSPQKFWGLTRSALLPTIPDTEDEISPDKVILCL

[5] = biological target: T2, Protein cereblon/Cyclin-dependent kinase 9 (Homo sapiens, UniProt P50750+Q96SW2); test: Protac activity at CRBN/CDK9 in human HCT116 cells assessed as induction of CDK9 protein degradation at 20 uM after 6 hrs by Western blot analysis relative to control
[6] = biological target: T2, Protein cereblon/Cyclin-dependent kinase 9; test: Protac activity at CRBN/CDK9 in human HCT116 cells assessed as induction of CDK9 protein degradation after 6 hrs by Western blot analysis
[7] = biological target: T3, Protein cereblon/B-cell lymphoma 6 protein (Homo sapiens, UniProt Q96SW2+P41182); test: Protac activity at CRBN/BCL6 in human SUDHL4 cells assessed as induction of BCL6 protein degradation after 4 hrs by Western blot analysis
T3 sequence (Q96SW2 whole entry, looked up, other chains not shown): as the sequence (Q96SW2 whole entry partner) above

[8] = biological target: T3, Protein cereblon/B-cell lymphoma 6 protein; test: Protac activity at CRBN/BCL6 in human SUDHL4 cells assessed as induction of BCL6 protein degradation at 1 uM after 4 hrs by Western blot analysis relative to control
[9] = biological target: Protein cereblon/Histone acetyltransferase KAT2B (Homo sapiens) (UniProt Q92831+Q96SW2); test: Protac activity at CRBN/PCAF in human THP1 cells assessed as induction of PCAF protein degradation incubated for 18 hrs by Western blot analysis relative to control
[10] = biological target: Protein cereblon/Histone acetyltransferase KAT2A (Homo sapiens) (UniProt Q92830+Q96SW2); test: Protac activity at CRBN/GCN5 in human THP1 cells assessed as induction of GCN5 protein degradation at 1 nM incubated for 18 hrs by Western blot analysis relative to control
[11] = Protac activity at CRBN/FKBP12 F36V mutant (unknown origin) expressed in human 293FT cells assessed as induction of FKBP12 F36V mutant protein degradation incubated for 4 hrs by Western blot analysis
[12] = species on record: Homo sapiens; test: Protac activity at CRBN/FKBP12 F36V mutant (unknown origin) expressed in human 293FT cells assessed as induction of FKBP12 F36V mutant protein degradation incubated for 4 hrs by Western blot analysis relative to control
[13] = biological target: T4, Protein cereblon/Tyrosine-protein kinase BTK (Homo sapiens, UniProt Q06187+Q96SW2, C481S); test: Protac activity at CRBN/BTK C481S mutant in human MCL cells assessed as induction of BTK C481S mutant degradation
T4 sequence (Q06187 2-659 C481S limits assumed, stated change not applied): as the sequence (Q06187 2-659 limits assumed) above, with C480S counted along it
T4 sequence (Q96SW2 whole entry, stated change not applied): as the sequence (Q96SW2 whole entry partner) above

[14] = system: Protein cereblon/Tyrosine-protein kinase BTK (Homo sapiens), Q06187+Q96SW2 [C481S]; test: Protac activity at CRBN/BTK C481S mutant in human MCL cells assessed as induction of BTK C481S mutant degradation at 500 nM relative to control
[15] = biological target: T4, Protein cereblon/Tyrosine-protein kinase BTK; test: Protac activity at CRBN/BTK C481S mutant in human MM cells assessed as induction of BTK C481S mutant protein degradation
[16] = system: Protein cereblon/Tyrosine-protein kinase BTK (Homo sapiens), Q06187+Q96SW2 [C481S]; test: Protac activity at CRBN/BTK C481S mutant in human MM cells assessed as induction of BTK C481S mutant protein degradation at 500 nM relative to control
[17] = biological target: von Hippel-Lindau disease tumor suppressor/Receptor-interacting serine/threonine-protein kinase 2 (Homo sapiens) (UniProt O43353+P40337); test: Protac activity at VHL/RIPK2 in human THP1 cells assessed as induction of RIPK2 protein degradation at 10 nM incubated for 16 hrs by Western blot analysis relative to control
von Hippel-Lindau disease tumor suppressor/Receptor-interacting serine/threonine-protein kinase 2 (Homo sapiens), sequence (O43353 whole entry, looked up): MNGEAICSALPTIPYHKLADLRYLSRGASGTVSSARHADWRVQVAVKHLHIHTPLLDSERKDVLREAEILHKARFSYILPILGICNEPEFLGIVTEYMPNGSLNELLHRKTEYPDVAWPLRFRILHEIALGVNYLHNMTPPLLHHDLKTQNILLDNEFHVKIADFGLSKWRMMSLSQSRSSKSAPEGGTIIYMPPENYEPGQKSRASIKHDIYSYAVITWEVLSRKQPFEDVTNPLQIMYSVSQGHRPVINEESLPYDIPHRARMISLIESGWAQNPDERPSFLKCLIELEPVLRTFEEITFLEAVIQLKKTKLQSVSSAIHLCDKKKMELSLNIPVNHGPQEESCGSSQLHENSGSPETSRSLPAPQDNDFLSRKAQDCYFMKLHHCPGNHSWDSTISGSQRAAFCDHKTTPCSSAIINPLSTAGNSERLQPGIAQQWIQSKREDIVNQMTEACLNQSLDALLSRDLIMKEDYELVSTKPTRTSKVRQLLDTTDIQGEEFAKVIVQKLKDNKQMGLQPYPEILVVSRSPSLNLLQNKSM
von Hippel-Lindau disease tumor suppressor/Receptor-interacting serine/threonine-protein kinase 2 (Homo sapiens), sequence (P40337 whole entry, looked up): as the sequence (P40337 whole entry, looked up, other chains not shown) above

Emax [1]: > 96%
Structure (SMILES): Cc1ncsc1-c1ccc(CNC(=O)[C@@H]2C[C@@H](O)CN2C(=O)[C@@H](NC(=O)COCCOCCOCCNC(=O)C[C@@H]2N=C(c3ccc(Cl)cc3)c3c(sc(C)c3C)-n3c(C)nnc32)C(C)(C)C)cc1

DC50 [2]: 100 nM | Emax [3]: 86%
Structure (SMILES): COc1cc(/C=C2\SC(=O)N(CCOCCC(=O)N[C@H](C(=O)N3C[C@H](O)C[C@H]3C(=O)NCc3ccc(-c4scnc4C)cc3)C(C)(C)C)C2=O)ccc1Oc1ccc(C#N)cc1C(F)(F)F

Emax [4]: > 99%
Structure (SMILES): Nc1ncnc2c1c(-c1ccc(Oc3ccccc3)cc1)nn2C1CCN(CCOCCOCC(=O)Nc2ccc3c(c2)C(=O)N(C2CCC(=O)NC2=O)C3=O)CC1 (configuration not stated)

Emax [5]: > 65%
Structure (SMILES): O=C1CCC(N2C(=O)c3cccc(OCCCCCOc4ccc(CC(=O)Nc5cc(C6CCC6)[nH]n5)cc4)c3C2=O)C(=O)N1 (configuration not stated)

DC50 [6]: 10000 nM
Structure (SMILES): O=C1CCC(N2C(=O)c3cccc(OCCCCCOc4ccc(CC(=O)Nc5cc(C6CCC6)n[nH]5)cc4)c3C2=O)C(=O)N1 (configuration not stated)

DC50 [7]: < 1000 nM | Emax [8]: 84%
Structure (SMILES): CN1C(=O)CCc2cc3cc(c21)OCCOC[C@H]1CN(C(=O)CCC(=O)NCCCOCCOCCOCCOCCOc2cccc4c2C(=O)N(C2CCC(=O)NC2=O)C4=O)CCN1c1ncc(Cl)c(n1)N3 (some centres not stated)

Emax [9]: 97% | Emax [10]: 81%
Structure (SMILES): CN1C[C@H](Nc2cnn(C)c(=O)c2Br)C[C@H](c2ccc(C(=O)N(C)CCCN(C)c3ccc(CCCOc4cccc5c4C(=O)N(C4CCC(=O)NC4=O)C5=O)cc3)cc2)C1 (some centres not stated)

Structure (SMILES): CC[C@H](C(=O)N1CCCC[C@H]1C(=O)O[C@H](CCc1ccc(OC)c(OC)c1)c1ccccc1OCC(=O)NCCCCCCOc1cccc2c1C(=O)N(C1CCC(=O)NC1=O)C2=O)c1cc(OC)c(OC)c(OC)c1 (some centres not stated)
DC50 [11]: < 100 nM | Emax [12]: 82%

Structure (SMILES): Nc1ncnc2c1c(-c1ccc(Oc3ccccc3)cc1)nn2[C@@H]1CCCN(C(=O)c2cn(CCOCCOCCOCCNc3cccc4c3C(=O)N(C3CCC(=O)NC3=O)C4=O)nn2)C1 (some centres not stated)
DC50 [13]: > 6 nM | Emax [14]: > 94% | DC50 [15]: < 12 nM | Emax [16]: > 94%

Emax [17]: > 95%
Structure (SMILES): Cc1ncsc1-c1ccc(CNC(=O)[C@@H]2C[C@@H](O)CN2C(=O)[C@@H](NC(=O)COCCOCCOCCOCCOc2cc3nccc(Nc4ccc5scnc5c4)c3cc2S(=O)(=O)C(C)(C)C)C(C)(C)C)cc1
